In patent US7803815B2, “Indol-3-yl-corbonyl-piperidin-benzoimidazol derivatives” (Hoffmann-La Roche Inc., priority 2005, dated 2010):

target: T1, human V1a receptor (Homo sapiens, UniProt P37288); assay: human V1a receptor binding, 3H-Vasopressin SPA on membranes of transfected HEK293 cells; conditions: displacement of 4 nM 3H-Vasopressin; HEK293 cell membranes; 1 h at room temperature; Ki from IC50 by the Cheng-Prussoff equation
T1 construct: expressed in transfected cells; host or cells: HEK293 cells, transiently transfected; membrane preparation
T1 sequence (P37288 whole entry): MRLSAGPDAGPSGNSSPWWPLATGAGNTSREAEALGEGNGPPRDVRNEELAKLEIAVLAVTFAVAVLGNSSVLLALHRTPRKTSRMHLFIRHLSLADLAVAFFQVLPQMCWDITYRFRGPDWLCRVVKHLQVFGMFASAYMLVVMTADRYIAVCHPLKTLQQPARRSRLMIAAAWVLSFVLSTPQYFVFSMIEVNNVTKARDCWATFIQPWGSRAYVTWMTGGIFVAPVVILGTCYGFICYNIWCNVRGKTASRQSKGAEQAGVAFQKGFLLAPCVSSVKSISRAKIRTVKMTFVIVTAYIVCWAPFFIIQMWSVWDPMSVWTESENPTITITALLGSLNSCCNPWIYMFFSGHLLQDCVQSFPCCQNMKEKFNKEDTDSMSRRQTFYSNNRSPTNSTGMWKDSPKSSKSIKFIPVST
Method: The human V1a receptor was cloned by RT-PCR from total human liver RNA. The coding sequence was subcloned in an expression vector after sequencing to confirm the identity of the amplified sequence. […] Cell membranes were prepared from HEK293 cells transiently transfected with the expression vector and grown in 20 liter fermenters with the following protocol.
50 g of cells are resuspended in 30 ml freshly prepared ice cold Lysis buffer (50 mM HEPES, 1 mM EDTA, 10 mM MgCl2 adjusted to pH=7.4+ complete cocktail of protease inhibitor (Roche Diagnostics)). Homogenized with Polytron for 1 min and sonicated on ice for 2×2 minutes at 80% intensity (Vibracell sonicator). The preparation is centrifuged 20 min at 500 g at 4° C., the pellet is discarded, and the supernatant centrifuged 1 hour at 43,000 g at 4° C. (19,000 rpm). The pellet is resuspended in 12.5 ml Lysis buffer+12.5 ml Sucrose 20% and homogenized using a Polytron for 1-2 min. The protein concentration is determined by the Bradford method, and aliquots are stored at −80° C. until use. For binding studies 60 mg Yttrium silicate SPA beads (Amersham) are mixed with an aliquot of membrane in binding buffer (50 mM Tris, 120 mM NaCl, 5 mM, KCl, 2 mM CaCl2, 10 mM MgCl2) for 15 minutes with mixing. 50 ul of bead/membrane mixture is then added to each well of a 96 well plate, followed by 50 ul of 4 nM 3H-Vasopressin (American Radiolabeled Chemicals). For total binding measurement, 100 ul of binding buffer are added to the respective wells, for non-specific binding 100 ul of […] cold vasopressin and for compound testing 100 ul of a serial dilution of each compound in 2% DMSO. The plate is incubated 1 h at room temperature, centrifuged 1 min at 1000 g and counted on a Packard Top-Count. Non-specific binding counts are subtracted from each well, and data is normalized to the maximum specific binding set at 100%. To calculate an IC 50, the curve is fitted using a non-linear regression model (XLfit), and the Ki is calculated using the Cheng-Prussoff equation.

SMILES | Ki
Cc1c(C(=O)N2CCC(n3c(Cl)nc4ccccc43)CC2)c2ccccc2n1Cc1ccccc1 [Example 1, (1-Benzyl-2-methyl-1H-indol-3-yl)-[4-(2-chloro-benzoimidazol-1-yl)-piperidin-1-yl]-methanone] | 45 nM
Cc1c(C(=O)N2CCC(n3c(N4CCOCC4)nc4ccccc43)CC2)c2ccccc2n1Cc1ccccc1 [Example 3, (1-Benzyl-2-methyl-1H-indol-3-yl)-[4-(2-morpholin-4-yl-benzoimidazol-1-yl)-piperidin-1-yl]-methanone] | 18 nM
O=C(c1cn(Cc2ccccc2)c2ccccc12)N1CCC(n2c(=O)[nH]c3ccccc32)CC1 [Example 8, 1-[1-(1-Benzyl-1H-indole-3-carbonyl)-piperidin-4-yl]-1,3-dihydro-benzoimidazol-2-one] | 13 nM
CC(C)n1cc(C(=O)N2CCC(n3c(=O)[nH]c4ccccc43)CC2)c2ccc(F)cc21 [Example 12, 1-[1-(6-Fluoro-1-isopropyl-1H-indole-3-carbonyl)-piperidin-4-yl]-1,3-dihydro-benzoimidazol-2-one] | 13 nM
CC(C)n1cc(C(=O)N2CCC(n3c(=O)[nH]c4ccccc43)CC2)c2ccc(Cl)cc21 [Example 13, 1-[1-(6-Chloro-1-isopropyl-1H-indole-3-carbonyl)-piperidin-4-yl]-1,3-dihydro-benzoimidazol-2-one] | 2 nM
CC(C)n1cc(C(=O)N2CCC(n3c(=O)[nH]c4ccccc43)CC2)c2ccccc21 [Example 14, 1-[1-(1-Isopropyl-1H-indole-3-carbonyl)-piperidin-4-yl]-1,3-dihydro-benzoimidazol-2-one] | 32 nM
Cc1c(C(=O)N2CCC(n3c(=O)n(CCN(C)C)c4ccccc43)CC2)c2ccccc2n1Cc1ccccc1 [Example 20, 1-[1-(1-Benzyl-2-methyl-1H-indole-3-carbonyl)-piperidin-4-yl]-3-(2-dimethylamino-ethyl)-1,3-dihydro-benzoimidazol-2-one] | 5 nM
O=C(c1cn(Cc2ccccc2)c2cc(Cl)ccc12)N1CCC(n2c(=O)[nH]c3ccccc32)CC1 [Example 24, 1-[1-(1-Benzyl-6-chloro-1H-indole-3-carbonyl)-piperidin-4-yl]-1,3-dihydro-benzoimidazol-2-one] | 2 nM
O=C(c1cn(CC2CCCCC2)c2ccccc12)N1CCC(n2c(=O)[nH]c3ccccc32)CC1 [Example 25, 1-[1-(1-Cyclohexylmethyl-1H-indole-3-carbonyl)-piperidin-4-yl]-1,3-dihydro-benzoimidazol-2-one] | 20 nM
O=C(c1cn(Cc2cc(F)cc(F)c2)c2cc(Cl)ccc12)N1CCC(n2c(=O)[nH]c3ccccc32)CC1 [Example 33, 1-{1-[6-Chloro-1-(3,5-difluoro-benzyl)-1H-indole-3-carbonyl]-piperidin-4-yl}-1,3-dihydro-benzoimidazol-2-one] | 15 nM
O=C(c1cn(Cc2cccc(F)c2)c2cc(Cl)ccc12)N1CCC(n2c(=O)[nH]c3ccccc32)CC1 [Example 34, 1-{1-[6-Chloro-1-(3-fluoro-benzyl)-1H-indole-3-carbonyl]-piperidin-4-yl}-1,3-dihydro-benzoimidazol-2-one] | 9 nM
O=C(Cn1cc(C(=O)N2CCC(n3c(=O)[nH]c4ccccc43)CC2)c2ccc(Cl)cc21)c1cc(F)ccc1F [Example 35, 1-(1-{6-Chloro-1-[2-(2,5-difluoro-phenyl)-2-oxo-ethyl]-1H-indole-3-carbonyl}-piperidin-4-yl)-1,3-dihydro-benzoimidazol-2-one] | 5 nM

The next lines start with the values.

Ki | SMILES
6 nM | Cc1c(C(=O)N2CCC(n3c(N4CCCCC4)nc4ccccc43)CC2)c2ccccc2n1Cc1ccccc1 [Example 4, (1-Benzyl-2-methyl-1H-indol-3-yl)-[4-(2-piperidin-1-yl-benzoimidazol-1-yl)-piperidin-1-yl]-methanone]
13 nM | Cc1c(C(=O)N2CCC(n3c(=O)n(C)c4ccccc43)CC2)c2ccccc2n1Cc1ccccc1 [Example 9, 1-{1-[(1-benzyl-2-methyl-1H-indol-3-yl)carbonyl]piperidin-4-yl}-3-methyl-1,3-dihydro-2H-benzimidazol-2-one]
39 nM | Cc1[nH]c2ccccc2c1C(=O)N1CCC(n2c(=O)[nH]c3ccccc32)CC1 [Example 10, 1-[1-(2-Methyl-1H-indole-3-carbonyl)-piperidin-4-yl]-1,3-dihydro-benzoimidazol-2-one]
20 nM | COc1ccc2c(C(=O)N3CCC(n4c(=O)[nH]c5ccccc54)CC3)cn(C(C)C)c2c1 [Example 11, 1-[1-(1-Isopropyl-6-methoxy-1H-indole-3-carbonyl)-piperidin-4-yl]-1,3-dihydro-benzoimidazol-2-one]
7 nM | O=C(c1c[nH]c2cc(Cl)ccc12)N1CCC(n2c(=O)[nH]c3ccccc32)CC1 [Example 18, 1-[1-(6-Chloro-1H-indole-3-carbonyl)-piperidin-4-yl]-1,3-dihydro-benzoimidazol-2-one]
5 nM | O=C(c1c[nH]c2cc(Cl)c(F)cc12)N1CCC(n2c(=O)[nH]c3ccccc32)CC1 [Example 19, 1-[1-(6-Chloro-5-fluoro-1H-indole-3-carbonyl)-piperidin-4-yl]-1,3-dihydro-benzoimidazol-2-one]
6 nM | N#CCn1cc(C(=O)N2CCC(n3c(=O)[nH]c4ccccc43)CC2)c2ccc(Cl)cc21 [Example 21, {6-Chloro-3-[4-(2-oxo-2,3-dihydro-benzoimidazol-1-yl)-piperidine-1-carbonyl]-indol-1-yl}-acetonitrile]
11 nM | CCC(C)C(=O)c1[nH]c2ccccc2c1C(=O)N1CCC(n2c(=O)[nH]c3ccccc32)CC1 (centres unmarked) [Example 22, 1-{1-[2-(2-Methyl-butyryl)-1H-indole-3-carbonyl]-piperidin-4-yl}-1,3-dihydro-benzoimidazol-2-one]
6 nM | Cc1c(C(=O)N2CCC(n3c(=O)[nH]c4ccccc43)CC2)c2ccccc2n1Cc1ccccc1 [Example 23, 1-[1-(1-Benzyl-2-methyl-1H-indole-3-carbonyl)-piperidin-4-yl]-1,3-dihydro-benzoimidazol-2-one]
0.7 nM | CN(C)CCn1cc(C(=O)N2CCC(n3c(=O)[nH]c4ccccc43)CC2)c2ccc(Cl)cc21 [Example 26, 1-{1-[6-Chloro-1-(2-dimethylamino-ethyl)-1H-indole-3-carbonyl]-piperidin-4-yl}-1,3-dihydro-benzoimidazol-2-one]
5 nM | CN(C)CCn1c(=O)n(C2CCN(C(=O)c3c[nH]c4cc(Cl)ccc34)CC2)c2ccccc21 [Example 27, 1-[1-(6-Chloro-1H-indole-3-carbonyl)-piperidin-4-yl]-3-(2-dimethylamino-ethyl)-1,3-dihydro-benzoimidazol-2-one]
12 nM | O=C(c1cn(C(=O)c2cccc(F)c2)c2cc(Cl)ccc12)N1CCC(n2c(=O)[nH]c3ccccc32)CC1 [Example 28, 1-{1-[6-Chloro-1-(3-fluoro-benzoyl)-1H-indole-3-carbonyl]-piperidin-4-yl}-1,3-dihydro-benzoimidazol-2-one]
22 nM | O=C(Cn1cc(C(=O)N2CCC(n3c(=O)[nH]c4ccccc43)CC2)c2ccc(Cl)cc21)c1cccc(F)c1 [Example 29, 1-(1-{6-Chloro-1-[2-(3-fluoro-phenyl)-2-oxo-ethyl]-1H-indole-3-carbonyl}-piperidin-4-yl)-1,3-dihydro-benzoimidazol-2-one]
35 nM | O=C(c1cn(C(=O)c2ccccc2F)c2cc(Cl)ccc12)N1CCC(n2c(=O)[nH]c3ccccc32)CC1 [Example 30, 1-{1-[6-Chloro-1-(2-fluoro-benzoyl)-1H-indole-3-carbonyl]-piperidin-4-yl}-1,3-dihydro-benzoimidazol-2-one]
25 nM | O=C(c1cn(C(=O)c2cccc(F)c2F)c2cc(Cl)ccc12)N1CCC(n2c(=O)[nH]c3ccccc32)CC1 [Example 31, 1-{1-[6-Chloro-1-(2,3-difluoro-benzoyl)-1H-indole-3-carbonyl]-piperidin-4-yl}-1,3-dihydro-benzoimidazol-2-one]
6 nM | O=C(Cn1cc(C(=O)N2CCC(n3c(=O)[nH]c4ccccc43)CC2)c2ccc(Cl)cc21)c1ccc(F)cc1F [Example 36, 1-(1-{6-Chloro-1-[2-(2,4-difluoro-phenyl)-2-oxo-ethyl]-1H-indole-3-carbonyl}-piperidin-4-yl)-1,3-dihydro-benzoimidazol-2-one]
15 nM | O=C(c1cn(C(=O)c2cc(F)cc(F)c2)c2cc(Cl)ccc12)N1CCC(n2c(=O)[nH]c3ccccc32)CC1 [Example 37, 1-{1-[6-Chloro-1-(3,5-difluoro-benzoyl)-1H-indole-3-carbonyl]-piperidin-4-yl}-1,3-dihydro-benzoimidazol-2-one]
